Laboratory results: patent publication US6822146B2, “Sulfonylurea-tolerant sunflower line M7” (priority 2000, dated 2004)
Where two headings read alike, the source gives them in different places.

How the values were obtained:
[1] = tested on: BC2-M3M11; experiment: Test G control of volunteer sunflower, BC2-M3M11; type: in vivo; conditions: rated 4 weeks after application, scale 0-100
[2] = tested on: GA-M4M7 × RHA274; experiment: Test A field trial, phytotoxicity, variety E; type: in vivo, sunflower
From the text: (§1) To generate the hybrids C, D and E, the fourth generation self-pollinated maintainer mutant lines M4M12, M4M11 and M4M7 were chemically sterilized by applying at the bud “star” flower stage a small amount of gibberellic acid solution to sterilize the pollen according to the general method described in Sunflower Science Technology, J. F. Carter ed. (Number 19 in the series “Agronomy”) pp. 339-386. This treatment enables maintainer plants to behave as CMS inbred lines and allows the production of heterozygous resistant hybrids, with the herbicide resistant source coming from the female side. Such crosses allowed evaluating the sexual effect of the mutation source when introduced on the female side of a cross as described in crosses C, D and E versus the male side of a cross as described in crosses F, G and H. Labels I, J and K identify third generation CMS mutant lines crossed with fourth generation maintainer lines to maintain the highly heritable mutant trait in a male sterile homozygous resistant environment. One skilled in sunflower breeding art understands the meaning of such crosses.
(§2) A rating of 0% phytotoxicity means no crop injury.

[3] = tested on: BC3-M4M11; experiment: Test A field trial, phytotoxicity, variety J; type: in vivo, sunflower
From the text: as §1, §2

[4] = tested on: BC2-M3M12; experiment: Test G control of volunteer sunflower, BC2-M3M12; type: in vivo; conditions: rated 4 weeks after application, scale 0-100
[5] = tested on: mutants originating from M11 and M12; conditions: tribenuron-methyl up to 60 g a.i./ha; others at Test G rates
From the text: This test involved sulfonylurea-resistant sunflower progeny BC2-M3M11 and BC2-M3M12, derived from M11 and M12, respectively. Also, a sulfonylurea-susceptible hybrid, H89A×RHA274, was included for comparison. Plants were sprayed with formulated herbicides at the 4-leaf stage. The efficacy of the treatments on the sunflowers was visually rated 4 weeks after application, using a scale where 0 means no control of the sunflowers, 85 means sufficient efficacy level to stop plants from flowering and propagating, and 100 means a complete destruction of the mutants.
Weed control in sugar beet requires 2-3 herbicide applications per season to efficiently control weeds in this slow growing crop.

[6] = tested on: GA-M4M12 × RHA274; experiment: Test A field trial, phytotoxicity, variety C; type: in vivo, sunflower
From the text: as §1, §2

[7] = tested on: H89A × RHA274 (sulfonylurea-susceptible hybrid); experiment: Test G control of volunteer sunflower, H89A × RHA274; type: in vivo; conditions: rated 4 weeks after application, scale 0-100
[8] = tested on: H89A × M4M7; type: in vivo, sunflower; conditions: variety H
[9] = tested on: H89A × M4M11; type: in vivo, sunflower; conditions: variety G
Outline: (§3)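 Fourth-generation self-pollinated maintainer mutant lines were chemically sterilized with a small amount of gibberellic acid at the bud "star" flower stage, making them act as CMS females. Herbicide resistance came from the female side. Field phytotoxicity was scored in %, with 0% meaning no crop injury.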

[10] = tested on: Inbred line control: H89A; type: in vivo, sunflower; conditions: variety B
Outline: as §3

[11] = tested on: Hybrid control: H89A × RHA274; type: in vivo, sunflower; conditions: variety A
Outline: as §3

[12] = tested on: H89A × M4M12; type: in vivo, sunflower; conditions: variety F
[13] = tested on: Orobanche cumana; experiment: Test E control of Orobanche cumana in resistant sunflower hybrid; type: in vivo; conditions: for relative efficacy in controlling Orobanche: Test E rates, metsulfuron-methyl compared with tribenuron-methyl
Experimental: The effect of the various treatments was evaluated 35 days after sowing. The sunflower roots were cleaned by washing in water, and the presence of Orobanche nodules was determined visually and by weighing root wet mass in comparison to check plants free of Orobanche infestation. […] The nodules caused by Orobanche increased root weight, and a correlation (r=0.7) was found between visual scores and weight measurements. Thus the weighing technique could be used to corroborate visual efficacy scorings. Orobanche emergence was also scored but found to be less useful to evaluate treatment efficiency at the evaluation timing of this test.
Based on the results from Test D, a modified protocol was developed to include three timings of post-emergence treatment. The hybrid BC4-M5M12 (female parent)×PHA155 restorer line (male parent) described in Test C was used in this test. Various herbicide programs were tested using three replications. […] Seed coatings of these formulated herbicides were applied to 6 kg of seeds in such amount that considering the distribution of the coated seeds in each pot, the herbicide active ingredient (a.i.) application rates per hectare were as indicated.
The treatments were applied similar to the methods described for Test D. Pre-emergence applications were broadcast only, not soil incorporated. For pre-emergence application, the pots were sprayed using the high rates of the herbicides two days after sowing the sunflower seeds. Post-emergence treatments were applied at the 4-6 leaf stage of sunflower (corresponding to early stage of Orobanche attachment; identified as “T1”), the 6-8 leaf stage of sunflower (corresponding to the mid stage of Orobanche attachment; nodules <5 mm diameter; identified as “T2”) and 8-12 leaf stage of sunflower (corresponding to late stage of Orobanche attachment; identified as “T3”). The mid-stage applications included the high as well as low application rates of each herbicide.
For comparison were also included in this test other acetolactate synthase-inhibiting herbicides reported in the literature as giving good weed control of Orobanche (L. García-Torres et al., Weed Research 1994, 34, 395-402; L. García-Torres et al., Weed Technology 1995, 9, 819-824; J. Hershenhorn et al., Weed Technology 1998, 12, 108-114).

[14] = tested on: BC3-M4M12; experiment: Test A field trial, phytotoxicity, variety I; type: in vivo, sunflower
From the text: as §1, §2

[15] = tested on: GA-M4M11 × RHA274; experiment: Test A field trial, phytotoxicity, variety D; type: in vivo, sunflower
From the text: as §1, §2

[16] = tested on: BC3-M4M7; experiment: Test A field trial, phytotoxicity, variety K; type: in vivo, sunflower
From the text: as §1, §2

[17] = 6 g a.i./ha post-emergence, without Citowet

For `COC(=O)c1ccccc1S(=O)(=O)NC(=O)Nc1nc(C)nc(OC)n1` [Metsulfuron-methyl, metsulfuron-methyl], the “Efficacy on BC2-M3M11” value ([1]; 4 g a.i./ha) was 8, the “Maximum Phytotoxicity” value ([2]; in vivo) was 0% and the “Maximum Phytotoxicity” value ([3]; in vivo) was 11%. For the same molecule, the “Efficacy on BC2-M3M12” value ([4]; 4 g a.i./ha) was 18, the “resistance/tolerance of the mutants” value [5] was “to a lesser extent than with tribenuron-methyl” and the “Maximum Phytotoxicity” value ([6]; in vivo) was 8%. The “Efficacy on H89A × RHA274” value ([7]; 4 g a.i./ha) was 100, the “Maximum Phytotoxicity” value [8, 17] was 4% and the “Maximum Phytotoxicity” value [9, 17] was 6%. The “Maximum Phytotoxicity” value [10, 17] was 100%, the “Maximum Phytotoxicity” value [11, 17] was 100% and the “Maximum Phytotoxicity” value [12, 17] was 4%. For the same molecule, the “relative efficacy in controlling Orobanche” value [13] was “more efficacious in controlling Orobanche”, the Control ([13]; post-emergence 3 + 3 g a.i./ha at T1 + T3) was 96% and the Control ([13]; post-emergence 3 + 3 g a.i./ha at T1 + T3, listed as metsulfuron-methyl) was “excellent level of Orobanche control”. It also gave a Control ([13]; post-emergence 6 g a.i./ha at T2) of 97%, a Control ([13]; pre-emergence 3 + post-emergence 3 g a.i./ha at T2) of 87% and a Control ([13]; pre-emergence 6 g a.i./ha (r19)) of 30%. For the same molecule, the “Maximum Phytotoxicity” value ([14]; in vivo) was 7%, the “Maximum Phytotoxicity” value ([15]; in vivo) was 7% and the “Maximum Phytotoxicity” value ([16]; in vivo) was 8%.

`COC(=O)c1ccccc1S(=O)(=O)NC(=O)N(C)c1nc(C)nc(OC)n1` [Tribenuron-methyl, tribenuron-methyl] was tested, and the “Efficacy on BC2-M3M11” value ([1]; 10 g a.i./ha) was 0, the “Efficacy on BC2-M3M11” value ([1]; 20 g a.i./ha) was 0 and the “Efficacy on BC2-M3M11” value ([1]; 40 g a.i./ha) was 3. For the same molecule, the “Efficacy on BC2-M3M11” value ([1]; 60 g a.i./ha) was 10, the “Maximum Phytotoxicity” value ([2]; in vivo) was 2% and the “Maximum Phytotoxicity” value ([3]; in vivo) was 0%. The “Efficacy on BC2-M3M12” value ([4]; 10 g a.i./ha) was 0, the “Efficacy on BC2-M3M12” value ([4]; 20 g a.i./ha) was 0 and the “Efficacy on BC2-M3M12” value ([4]; 40 g a.i./ha) was 0. The “Efficacy on BC2-M3M12” value ([4]; 60 g a.i./ha) was 14, the “resistance/tolerance of the mutants” value [5] was “excellent to very good level of resistance” and the “Maximum Phytotoxicity” value ([6]; in vivo) was 0%. The “Efficacy on H89A × RHA274” value ([7]; 10 g a.i./ha, 4-leaf stage) was 100, the “Efficacy on H89A × RHA274” value ([7]; 20 g a.i./ha) was 100 and the “Efficacy on H89A × RHA274” value ([7]; 40 g a.i./ha) was 100. The “Efficacy on H89A × RHA274” value ([7]; 60 g a.i./ha) was 100, the “Maximum Phytotoxicity” value ([8]; 22.5 g a.i./ha post-emergence) was 0% and the “Maximum Phytotoxicity” value ([9]; 22.5 g a.i./ha post-emergence) was 3%. For the same molecule, the “Maximum Phytotoxicity” value ([10]; 22.5 g a.i./ha post-emergence) was 100%, the “Maximum Phytotoxicity” value ([11]; 22.5 g a.i./ha post-emergence) was 100% and the “Maximum Phytotoxicity” value ([12]; 22.5 g a.i./ha post-emergence) was 0%. For the same molecule, the Control ([13]; 22.5 g a.i./ha printed in pre-emergence column (first such row, r7), host BC4-M5M12 × PHA155) was 70%, the Control ([13]; post-emergence 11.25 + 11.25 g a.i./ha at T1 + T3) was 90% and the Control ([13]; post-emergence 22.5 g a.i./ha at T2) was 75%. For the same molecule, the Control ([13]; pre-emergence 11.25 + post-emergence 11.25 g a.i./ha at T2) was 78%, the Control ([13]; pre-emergence 22.5 g a.i./ha (r18)) was 0% and the Control ([13]; seed coating 11.25 + post-emergence 11.25 g a.i./ha at T2) was 88%. The “Maximum Phytotoxicity” value ([14]; in vivo) was 4%, the “Maximum Phytotoxicity” value ([15]; in vivo) was 6% and the “Maximum Phytotoxicity” value ([16]; in vivo) was 4%.

`COC(=O)c1cccc(C)c1S(=O)(=O)NC(=O)Nc1nc(OCC(F)(F)F)nc(N(C)C)n1` [Triflusulfuron-methyl, triflusulfuron-methyl] was tested, and the “Efficacy on BC2-M3M11” value ([1]; 15 g a.i./ha) was 13, the “Maximum Phytotoxicity” value ([2]; variety E, 20 g a.i./ha post-emergence) was 20% and the “Maximum Phytotoxicity” value ([2]; variety E, 40 g a.i./ha post-emergence) was 38%. The “Maximum Phytotoxicity” value ([3]; variety J, 20 g a.i./ha post-emergence) was 6%, the “Maximum Phytotoxicity” value ([3]; variety J, 40 g a.i./ha post-emergence) was 14% and the “Efficacy on BC2-M3M12” value ([4]; 15 g a.i./ha) was 8. For the same molecule, the “resistance/tolerance of the mutants” value [5] was “to a lesser extent than with tribenuron-methyl”, the “Maximum Phytotoxicity” value ([6]; variety C, 20 g a.i./ha post-emergence) was 19% and the “Maximum Phytotoxicity” value ([6]; variety C, 40 g a.i./ha post-emergence) was 38%. For the same molecule, the “Efficacy on H89A × RHA274” value ([7]; 15 g a.i./ha) was 82, the “Maximum Phytotoxicity” value ([8]; 20 g a.i./ha post-emergence) was 10% and the “Maximum Phytotoxicity” value ([8]; 40 g a.i./ha post-emergence) was 33%. For the same molecule, the “Maximum Phytotoxicity” value ([9]; 20 g a.i./ha post-emergence) was 15%, the “Maximum Phytotoxicity” value ([9]; 40 g a.i./ha post-emergence) was 36% and the “Maximum Phytotoxicity” value ([10]; 20 g a.i./ha post-emergence) was 100%. For the same molecule, the “Maximum Phytotoxicity” value ([10]; 40 g a.i./ha post-emergence) was 100%, the “Maximum Phytotoxicity” value ([11]; 20 g a.i./ha post-emergence) was 100% and the “Maximum Phytotoxicity” value ([11]; 40 g a.i./ha post-emergence) was 100%. The “Maximum Phytotoxicity” value ([12]; 20 g a.i./ha post-emergence) was 16%, the “Maximum Phytotoxicity” value ([12]; 40 g a.i./ha post-emergence) was 33% and the “relative efficacy in controlling Orobanche” value [13] was “less efficacious in controlling Orobanche”. The Control ([13]; post-emergence 18.75 g a.i./ha at T2) was 75%, the “Maximum Phytotoxicity” value ([14]; variety I, 20 g a.i./ha post-emergence) was 4% and the “Maximum Phytotoxicity” value ([14]; variety I, 40 g a.i./ha post-emergence) was 13%. The “Maximum Phytotoxicity” value ([15]; variety D, 20 g a.i./ha post-emergence) was 19%, the “Maximum Phytotoxicity” value ([15]; variety D, 40 g a.i./ha post-emergence) was 40% and the “Maximum Phytotoxicity” value ([16]; variety K, 20 g a.i./ha post-emergence) was 8%. The “Maximum Phytotoxicity” value ([16]; variety K, 40 g a.i./ha post-emergence) was 10%.
